Laboratory results reported in US20220378802A1, “TREATMENT OF ALCOHOLIC HEPATITIS” (Durect Corporation, priority 2019, published 2022).
Entries after “also recorded” stand apart in the source; their conditions may differ.

Tested on: patients with alcoholic hepatitis
Assay: Safety and tolerability in Phase 2a trial
Assay type: in vivo, human
Details: all AH patients
Protocol: All patients received IV infused 25HC3S (at 30, 90, or 150 mg) on Day 1 and Day 4 (if still hospitalized), and were followed for 28-days. The final enrollment was 19 patients comprised of: 8 patients (4 moderate and 4 severe) dosed at 30 mg, 7 patients (3 moderate and 4 severe) dosed at 90 mg, and 4 patients (4 severe) dosed at 150 mg. • Study Drug A 25HC3S sodium salt solution contained: • 30 mg/mL 25HC3S sodium salt; • 240 mg/mL hydroxypropyl-beta-cyclodextrin; and • 50 mmole phosphate buffer • The 25HC3S sodium salt solution was diluted in 100 mL 5% dextrose or 0.9% sodium chloride infusion solution: • Dose 1: 30 mg of 25HC3S sodium salt in 100 mL 5% dextrose or 0.9% sodium chloride • Dose 2: 90 mg of 25HC3S sodium salt in 100 mL 5% dextrose or 0.9% sodium chloride • Dose 3: 150 mg of 25HC3S sodium salt in 100 mL 5% dextrose or 0.9% sodium chloride • 25HC3S sodium salt was administered by slow intravenous infusion over 2 hrs (50 mL/h) until the entire dose is given at Day 1 and Day 4. If a patient met the hospital discharge criteria prior to the second dose, the patient received only one dose instead of two doses. • Study Procedure The study was conducted in two parts. Part A included patients with MELD scores of 11-20 (moderate AH patients), and Part B included patients with MELD of scores 21-30. The doses of 25HC3S sodium salt administered were 30 mg and 90 mg for Part A and 30 mg, 90 mg and 150 mg for Part B, with 4 patients per dose group per Part (except for only 3 patients in the 90 mg cohort of Part A). All patients were followed to Day 28. • The study started in 4 moderate AH patients (Part A) at 30 mg dose level. After completing the dosing, a Dose Escalation Committee (DEC) reviewed safety, tolerability and pharmacokinetic (PK) data from all 4 patients and determined that it was safe to move forward to dose 4 severe AH patients (Part B) at the same dose level, 30 mg, as well as escalating the dose level to 90 mg in moderate patients (Part A). […]

For `C[C@H](CCCC(C)(C)O)[C@H]1CC[C@H]2[C@@H]3CC=C4C[C@@H](OS(=O)(=O)O)CC[C@]4(C)[C@H]3CC[C@]12C` [25HC3S, 5-cholesten-3,25-diol, 3-sulfate], the safety / tolerability (30, 90, 150 mg) was “safe and well tolerated”, the serious adverse events (30, 90, 150 mg) was “no drug-related serious adverse events; also recorded: no treatment emergent serious adverse events; also recorded: no serious adverse effects related to 25HC3S” and the “discontinuations, early withdrawal or termination due to adverse effects” value was “no discontinuations, early withdrawal or termination”.
